# Experimental data from patent publication US12459939B2 (SHANGHAI RINGENE BIOPHARMA CO., LTD., priority 2019, dated 2025).
# pIC50: −log10 of the molar value.
# How the values were obtained:
# [1] = target: T1, BRD4-BD2 (Homo sapiens, UniProt O60885); test: BRD4 AlphaScreen determination (BD2); format: binding; conditions: AlphaScreen, protein binding inhibition; read-out: BRD4-BD2 IC50
# T1 construct: purchased ReactionBiologyCorp; (RBC)
# Method: (§1) (1) 1× Assay buffer was prepared according to the kit requirements of ReactionBiologyCorp. (RBC). (2) Compound concentration gradient preparation: the test compounds were tested at final concentrations starting at 10 μM, with 10 concentrations at 3-fold dilution and single well test was set for each concentration. The positive control compound(+)-JQ-1 was tested at final concentrations starting at 1 μM, with 10 concentrations at 3-fold dilution, and duplicated well test was set for each concentration. The solution was gradient diluted to the corresponding 1000-fold final concentration in a 384-well Source plate, and then 20 nL of the solution was transferred to the 384-well reaction plate with Echo550 to be measured. 20 nL of 100% DMSO was transferred to the Max well, and the highest concentration of the positive compounds were transferred to the Min wells. […] (6) 5 μL of 4× peptide solution was added to each well of the reaction plate, centrifuged at 1000 rpm for 1 min. (7) 10 μL of the assay solution was added, centrifuged at 1000 rpm for 60 seconds, the solution was mixed with gentle shaking, and incubated at room temperature for 60 minutes. (8) Reading with EnVision. (9) The IC50 values of the compounds for protein binding inhibition was obtained by fitting the dose-effect curve with the analytical software GraphPad Prism 5. (See Table 1 for specific values)
# [2] = target: T2, BRD4-BD1 (Homo sapiens, UniProt O60885); test: BRD4 AlphaScreen determination (BD1); format: binding; conditions: AlphaScreen, protein binding inhibition; read-out: BRD4-BD1 IC50
# T2 construct: purchased ReactionBiologyCorp; (RBC)
# Method: as §1
# [3] = tested on: MV4-11 cells; test: Inhibition of proliferation of MV4-11 cells (CellTiter-Glo); format: cell-based; conditions: Homo sapiens, 72 h
# Method: Specific experimental steps: 1) Day 0: 96 inoculated cells were digested with trypsin and suspended in cell culture medium, the cell density was detected by an automatic cell counter and the cells were diluted with the culture medium to a suitable density, 100 μL of cell suspension was added to the 96-well plate, and the cell-free medium was used as a control well, and the wells were incubated in a 37° C., 5% CO2 cell incubator overnight; 2) Day 1: A total of 8 concentrations of the compound to be tested in the drug-treated cells were tested at 3-fold dilution, 10 μM was the starting assay concentration of the compound to be tested. Specific steps: 200× compound mother liquor was prepared, the compound was diluted with culture medium to a final concentration of […], that is, 3 μL of 200× compound was added to 197 μL of culture medium, 50 μL diluted compound was added to each well of the 96-well plate, and placed at 37° C., 5% CO2 cell culture incubator for 72 h; 3) Day 4: Cell viability detection: 96-well cell plate was first equilibrated to room temperature, 40 μL of CellTiter-Glo® reagent was added to each well, mixed on a shaker for 2 minutes to fully lyse the cells, incubated at room temperature for 10 minutes to stabilize the luminescence signal, and the luminescence value was read by the Envision microplate reader; 4) data processing was performed by GraphPad Prism 5.0 software to analyze the data, and nonlinear S-curve regression was used to fit the data to obtain a dose-effect curve, and from which the ICso value was calculated. Inhibition rate %=(DMSO treated cell wells−compound treated cell wells)/(DMSO treated cell wells−cell free medium wells)×100. The ICso value was obtained by the four-parameter regression method using the random software in the microplate reader. (See Table 2 for specific values)
pIC50 [1],pIC50 [2],pIC50 [3],Structure (SMILES)
8.92,7.44,7.19,"CCNC(=O)c1cc2c(=O)n(C)cc(-c3cc(S(C)(=O)=O)cc4c3OC(C)(C)C(=O)N4C)c2[nH]1 [Embodiment 2, N-ethyl-5-methyl-4-oxo-7-(2,2,4-trimethyl-6-(methylsulfonyl)-3-oxo-3,4-dihydro-2H-benzo[b][1,4]oxazin-8-yl)-4,5-dihydro-1H-pyrrolo[3,2-c]pyridine-2-amide]"
,,> 8.82,"Cc1cc(F)cc(C)c1Oc1ccc(C(C)(C)O)cc1-c1cn(C)c(=O)c2cc(C(=O)NCCCC#Cc3cccc4c3CN(C3CCC(=O)NC3=O)C4=O)[nH]c12 (centres unmarked) [Embodiment 3, N-(5-(2-(2,6-dioxopiperidin-3-yl)-1-oxoisoindolin-4-yl)pent-4-yn-1-yl)-7-(2-(4-fluoro-2,6-dimethylphenoxy)-5-(2-hydroxyprop-2-yl)phenyl)-5-methyl-4-oxo-4,5-dihydro-1H-pyrrolo[3,2-c]pyridine-2-amide]"
,,> 8.82,"Cc1cc(F)cc(C)c1Oc1ccc(C(C)(C)O)cc1-c1cn(C)c(=O)c2cc(C(=O)NCCCCCc3cccc4c3CN(C3CCC(=O)NC3=O)C4=O)[nH]c12 (centres unmarked) [Embodiment 4, N-(5-(2-(2,6-dioxopiperidin-3-yl)-1-oxoisoindolin-4-yl)pentyl)-7-(2-(4-fluoro-2,6-dimethylphenoxy)-5-(2-hydroxyprop-2-yl)phenyl)-5-methyl-4-oxo-4,5-dihydro-1H-pyrrolo[3,2-c]pyridine-2-amide]"
,,> 8.82,"Cc1cc(F)cc(C)c1Oc1ccc(C(C)(C)O)cc1-c1cn(C)c(=O)c2cc(C(=O)NCCCCNC(=O)COc3cccc4c3C(=O)N(C3CCC(=O)NC3=O)C4=O)[nH]c12 (centres unmarked) [Embodiment 5, N-(4-(2-((2-(2,6-dioxopiperidin-3-yl)-1,3-dioxoisoindolin-4-yl)oxo)acetamido)butyl)-7-(2-(4-fluoro-2,6-dimethylphenoxy)-5-(2-hydroxyprop-2-yl)phenyl)-5-methyl-4-oxo-4,5-dihydro-1H-pyrrolo[3,2-c]pyridine-2-amide]"
,,7.99,"Cc1cc(F)cc(C)c1Oc1ccc(C(C)(C)O)cc1-c1cn(C)c(=O)c2cc(C(=O)NCCCOCCOCCOCCCNc3cccc4c3C(=O)N(C3CCC(=O)NC3=O)C4=O)[nH]c12 (centres unmarked) [Embodiment 6, N-(3-(2-(2-(3-((2-(2,6-dioxopiperidin-3-yl)-1,3-dioxoisoindolin-4-yl)amino)propoxy)ethoxy)ethoxy)propyl)-7-(2-(4-fluoro-2,6-dimethylphenoxy)-5-(2-hydroxyprop-2-yl)phenyl)-5-methyl-4-oxo-4,5-dihydro-1H-pyrrole[3,2-c]pyridine-2-amide]"
,,> 8.82,"CN1C(=O)C(C)(C)Oc2c(-c3cn(C)c(=O)c4cc(C(=O)NCCOCCOCCOCCC(=O)Nc5cccc6c5C(=O)N(C5CCC(=O)NC5=O)C6=O)[nH]c34)cc(S(C)(=O)=O)cc21 (centres unmarked) [Embodiment 7, N-(2-(2-(2-(3-((2-(2,6-dioxopiperidin-3-yl)-1,3-dioxoisoindolin-4-yl)amino)-3-oxo-n-propoxy)ethoxy)ethoxy)ethyl)-5-methyl-4-oxo-7-(2,2,4-trimethyl-6-(methylsulfonyl)-3-oxo-3,4-dihydro-2H-benzo[b] [1,4]oxazin-8-yl)-4,5-dihydro-1H-pyrrolo[3,2-c]pyridine-2-amide]"
9.29,7.43,7.70,"COCCNC(=O)c1cc2c(=O)n(C)cc(-c3cc(C(C)(C)O)ccc3Oc3c(C)cc(F)cc3C)c2[nH]1 [Embodiment 9, 7-(2-(4-fluoro-2,6-dimethylphenoxy)-5-(2-hydroxyprop-2-yl)phenyl)-N-(2-methoxyethyl)-5-methyl-4-oxo-4,5-dihydro-1H-pyrrolo[3,2-c]pyridine-2-amide]"
9.16,7.24,7.70,"Cc1cc(F)cc(C)c1Oc1ccc(C(C)(C)O)cc1-c1cn(C)c(=O)c2cc(C(=O)NCCS(C)(=O)=O)[nH]c12 [Embodiment 10, 7-(2-(4-fluoro-2,6-dimethylphenoxy)-5-(2-hydroxyprop-2-yl)phenyl)-N-(2-methylsulfonyl)-4-oxo-4,5-dihydro-1H-pyrrolo pyridine-2-amide]"
> 9.30,7.30,7.90,"Cc1cc(F)cc(C)c1Oc1ccc(C(C)(C)O)cc1-c1cn(C)c(=O)c2cc(C(=O)NCC3CC3)[nH]c12 [Embodiment 12, N-(cyclopropylmethyl)-7-(2-(4-fluoro-2,6-dimethylphenoxy)-5-(2-hydroxyprop-2-yl)phenyl)-5-methyl-4-oxo-4,5-dihydro-1H-pyrrolo[3,2-c]pyridine-2-amide]"
> 9.30,7.10,8.18,"Cc1cc(F)cc(C)c1Oc1ccc(C(C)(C)O)cc1-c1cn(C)c(=O)c2cc(C(=O)NC(C)C)[nH]c12 [Embodiment 13, 7-(2-(4-fluoro-2,6-dimethylphenoxy)-5-(2-hydroxyprop-2-yl)phenyl)-N-isopropyl-5-methyl-4-oxo-4,5-dihydro-1H-pyrrolo[3,2-c]pyridine-2-amide]"
> 9.30,6.66,7.50,"Cc1cc(F)cc(C)c1Oc1ccc(C(C)(C)O)cc1-c1cn(C)c(=O)c2cc(C(=O)NCC(F)(F)F)[nH]c12 [Embodiment 14, 7-(2-(4-fluoro-2,6-dimethylphenoxy)-5-(2-hydroxyprop-2-yl)phenyl)-5-methyl-4-oxo-N-(2,2,2-trifluoroethyl)-4,5-dihydro-1H-pyrrolo[3,2-c]pyridine-2-amide]"
> 9.30,7.09,7.48,"Cc1cc(F)cc(C)c1Oc1ccc(C(C)(C)O)cc1-c1cn(C)c(=O)c2cc(C(=O)NCC#N)[nH]c12 [Embodiment 15, N-(cyanomethyl)-7-(2-(4-fluoro-2,6-dimethylphenoxy)-5-(2-hydroxyprop-2-yl)phenyl)-5-methyl-4-oxo-4,5-dihydro-1H-pyrrolo[3,2-c] pyridine-2-amide]"
> 9.30,7.03,8.10,"Cc1cc(F)cc(C)c1Oc1ccc(C(C)(C)O)cc1-c1cn(C)c(=O)c2cc(C(=O)NC3CC3)[nH]c12 [Embodiment 16, N-cyclopropyl-7-(2-(4-fluoro-2,6-dimethylphenoxy)-5-(2-hydroxyprop-2-yl)phenyl)-5-methyl-4-oxo-4,5-dihydro-1H-pyrrolo[3,2-c]pyridine-2-amide]"
8.13,6.63,6.60,"Cc1cc(F)cc(C)c1Oc1ccc(C(C)(C)O)cc1-c1cn(C)c(=O)c2cc(C(=O)N3CCC3)[nH]c12 [Embodiment 17, 2-(azetidine-1-carbonyl)-7-(2-(4-fluoro-2,6-dimethylphenoxy)-5-(2-hydroxyprop-2-yl)phenyl)-5-methyl-1,5-dihydro-4H-pyrrolo[3,2-c] pyridin-4-one]"
8.55,6.53,6.83,"Cc1cc(F)cc(C)c1Oc1ccc(C(C)(C)O)cc1-c1cn(C)c(=O)c2cc(C(=O)N3CC(F)(F)C3)[nH]c12 [Embodiment 19, 2-(3,3-difluoroazetidine-1-carbonyl)-7-(2-(4-fluoro-2,6-dimethylphenoxy)-5-(2-hydroxyprop-2-yl)phenyl)-5-methyl-1,5-dihydro-4H-pyrrolo[3,2-c]pyridin-4-one]"
> 9.29,7.01,8.32,"Cc1cc(F)cc(C)c1Oc1ccc(C(C)(C)O)cc1-c1cn(C)c(=O)c2cc(C(=O)NC(CF)CF)[nH]c12 [Embodiment 20, N-(1,3-difluoropropyl-2-yl)-7-(2-(4-fluoro-2,6-dimethylphenoxy)-5-(2-hydroxyprop-2-yl)phenyl)-5-methyl-4-oxo-4,5-dihydro-1H-pyrrolo[3,2-c]pyridine-2-amide]"
